Drawing on patent publication EP0520823A2, “Non-substrate peptide inhibitors of farnesyl protein transferase” (MERCK & CO. INC., priority 1991, dated 1992), this text covers Farnesylation substrate, IC50 and substrate for isoprenylation for seven molecules.

Experiment [1] concerns partially pure bovine brain farnesyl-protein transferase. In words: Tetrapeptides tested as farnesylation substrates ([3H]FPP, TLC, autoradiography). The experiment is classed as biochemical. The settings on record: peptide 200 µM, 0.5 µM [3H] FPP, 30 min. at 30°C. The procedure:
When a peptide was used as the acceptor substrate, there were two changes to the assay: (1) Ras protein was excluded and, (2) the reactions were stopped by the additon of one tenth volume of 0.5 M EDTA. […] After drying under vacuum, the plates were sprayed with […] exposed to X-ray film at -70°C. […] These Rf values reflect TLC conditions using ethylacetate:pyridine: acetic acid:water (10:5:1:3) as the eluent. […] CAIS (Rf=0.84) and CAIM (Rf=0.83)). Quenched reaction mixtures containing peptide, farnesyldiphosphate and farnesyl-protein transferase were separated by TLC followed by visualization of the radioactive species by autoradiography. […] Control peptides having a […] substitution were not substrates. […] Autoradiographic exposure time was overnight (15-20 hr).

Experiment [2] deals with T1, Farnesyl-protein transferase from bovine brain (partially purified) (Bos taurus, UniProt P29702+P49355).
T1 construct: Cerebral lobes from bovine brains were homogenized in lysis buffer; from tissue; host or cells: bovine brain (cerebral lobes)
In words: Inhibition of Ras farnesylation by tetrapeptides. In kind it is biochemical. The conditions noted are these: Ras-CVLS at 3.5 µM, 0.25 µM [³H]FPP; average of 2-5 determinations. The procedure:
The quenched reactions were allowed to stand for 15 minutes (to complete the precipitation process).
Fractions (20 mL) were collected and those containing farnesyl-protein transferase activity were pooled.
Single capital letter amino acid abbreviations are used above.

Experiment [3] concerns bovine brain farnesyl-protein transferase. The conditions noted are these: earlier findings (Schaber et al.); cited from earlier work.

Where a SMILES comes first, the peptide text is derived from it. [ ]: non-standard residue; d: D form.

As to `CC(=O)N[C@@H](CS)C(=O)N[C@H](C(=O)N[C@@H](CC(C)C)C(=O)N[C@@H](CO)C(=O)O)C(C)C` [N-Ac-CVLS] (Ac-CVLS-OH), in experiment [1], the Farnesylation substrate result was “+ (+ > 90% [^3H] farnesyl diphosphate converted to [^3H] farnesyl tetrapeptide)”. The IC50 (as a rule, the point on the concentration scale where inhibition reaches its midpoint) in experiment [2] was 2 µM.
`CC(C)C[C@H](NC(=O)[C@@H](NC(=O)[C@@H](N)CS)C(C)C)C(=O)N[C@H](CO)C(=O)O` [CVL(dS)]: the Farnesylation substrate result in experiment [1] was “+ (+ > 90% [^3H] farnesyl diphosphate converted to [^3H] farnesyl tetrapeptide)”. Moreover, the IC50 in experiment [2] stood at 11 µM.
As for `CC(=O)N[C@H](CS)C(=O)N[C@H](C(=O)N[C@@H](CC(C)C)C(=O)N[C@@H](CO)C(=O)O)C(C)C` [N-Ac-(dC)VLS] (Ac-[dC]VLS-OH), the Farnesylation substrate result in experiment [1] is “+ (+ > 90% [^3H] farnesyl diphosphate converted to [^3H] farnesyl tetrapeptide)”. The IC50 in experiment [2] stood at 60 µM.
With `CC(C)C[C@@H](NC(=O)[C@@H](NC(=O)[C@@H](N)CS)C(C)C)C(=O)N[C@@H](CO)C(=O)O` [CV(dL)S, Cys-Val-D-Leu-Ser], the Farnesylation substrate entry in experiment [1] was “- (- < 1% conversion)”. Also, the midpoint of inhibition in experiment [2], the IC50, lay at 20 µM.
Regarding `CSCC[C@H](NC(=O)[C@@H](Cc1ccccc1)NC(=O)[C@@H](NC(=O)[C@@H](N)CS)C(C)C)C(=O)O` [CV(dF)M, Cys-Val-D-Phe-Met], the Farnesylation substrate entry in experiment [1] was “- (- < 1% conversion)”.
Take SSGCVLS [heptapeptide SSGCVLS]: the substrate for isoprenylation entry in experiment [3] is recorded as “served as a substrate for isoprenylation”.
With `CC(C)C[C@H](NC(=O)[C@@H](NC(=O)[C@@H](N)CO)C(C)C)C(=O)N[C@@H](CO)C(=O)O` [SVLS] (H-SVLS-OH), in experiment [1], the Farnesylation substrate entry is given as “- (- < 1% conversion)”.
